Experimental data reported in PubChem BioAssay AID1963843 (Molecular Pharmacology Branch, DTP, NCI, 2024).

Tested on: 616215-338-R-J1-PDC complex spheroid viability
Assay: Anticancer human tumor 616215-338-R-J1-PDC patient-derived colon adenocarcinoma cell line growth inhibition [POLQ]
Conditions: for IC50: curve of first compound; for viability, T/C: stronger effect = lower value; active means viability on the fitted dose curve at most 10% of control; inactive means the rest
Procedure: Multicellular complex tumor spheroid response to Polymerase (POL) inhibitors (novobiocin, ART-558, RP6685) in combination with a variety of drugs and investigational agents in selected tumor cell lines
The POL inhibitors (novobiocin, ART-558, and RP6685) were evaluated both individually and in combination with standard of care and investigational anticancer small molecules within a complex spheroid model of solid tumors. . Complex spheroids include a stromal component modeled by human endothelial cells (HUVEC) and fibroblasts modeled by human mesenchymal stem cells (MSCs). The concentration ranges selected for each drug and investigational agent were based upon clinically achievable concentrations if the clinical Cmax of the agent was known.
Compounds. The drugs and investigational agents: novobiocin (NSC847541), ART-558 (NSC835418), RP-6685 (NSC848927), peposertib (NSC802822), ceralasertib (NSC780249), elimusertib (NSC800525), camonsertib (NSC841442), AZD-1390 (NSC803789), olaparib (NSC753686), talazoparib (NSC767125), rucaparib (NSC756644), sotorasib (NSC818433), MRTX-1133 (NSC836407), SN-38 (NSC673596), topotecan (NSC609699), epotoside (NSC141540), doxorubicin (NSC123127), gemcitabine (NSC613327), 5-fluorouracil (NSC19893), paclitaxel (NSC125973), vemurafenib (NSC761431), MSA-2 (NSC828583), SN-011 (NSC837082), adavosertib (NSC754352), prexasertib (NSC758257), carboplatin (NSC241240) and oxaliplatin (NSC266046), were obtained from the National Cancer Institute (NCI) Developmental Therapeutics Program Chemical Repository (21). The FDA-approved anticancer drug set is available from the Developmental Therapeutics Program at https://dtp.cancer.gov/organization/dscb/obtaining/. […] The stock solutions were prepared in dimethyl sulfoxide (DMSO, Sigma-Aldrich, St. Louis, MO, cat. D2650), except for the platinum compounds which were prepared in saline (Quality Biological, Gaithersburg, MD, cat. 114-055-101), at 800-fold the tested concentration and stored at -70 degrees C prior to their use. All drugs and investigational agents were tested over a range starting from a high concentration at or near the clinical Cmax and decreasing in half-log increments. If the clinical Cmax for an agent had not been determined, the highest concentration tested was 10 microM, except for SN-38, which was tested at a high concentration of 1 microM.
Cell Culture. All cells were maintained in an incubator at 37 degrees C and 5% CO2 with 95% humidity. The PDC lines were cultured according to standard operating procedures established by the NCI PDMR (https://pdmr.cancer.gov). Table 3 of the manuscript, lists the cell lines along with the number of the three cell types plated to form the mct-spheroids and media for tumor cell growth. After thawing, all PDC lines, except 997537-175-T-J1-PDC and 415267-285-R-J2-PDC, were cultured in Matrigel-coated flasks prepared with a working solution of 1X Ham's F-12 nutrient mix, without supplementation (Thermo Fisher Scientific, cat. 11765054), 100 U/mL penicillin-streptomycin (Thermo Fisher Scientific, cat. 15140122), and 2.5% Matrigel (Corning Inc., Corning, NY, cat. 354248) for the first three passages. The two PDC lines 997537-175-T-J1-PDC and 415267-285-R-J2-PDC were cultured on uncoated flasks. The 857933-349-R-J2-PDC line was cultured in 6C/Colon 1B media containing advanced DMEM/F-12 (Thermo Fisher Scientific, cat. 12634028), 10 mM HEPES (Thermo Fisher Scientific, cat. 15630080), 1X GlutaMAX supplement (Thermo Fisher Scientific, cat. 35050061), 0.1 mg/mL primocin (InvivoGen, San Diego, CA, cat. ant-pm-2), 10% defined fetal bovine serum, heat inactivated (HyClone Laboratories Inc., Logan, UT, cat. SH30070.03HI), 50% L-WRN conditioned media (ATCC, cat. CRL-3276), 1.25 mM N-Acetyl-L-cysteine (Sigma-Aldrich, cat. A9165), 10 mM nicotinamide (Sigma-Aldrich, cat. N0636), 1X B-27 supplement (Thermo Fisher Scientific, cat. 17504044), 1X N-2 supplement (Thermo Fisher Scientific, cat. […]

[1] = second compound 0.0316 µM, first compound 0.0316 µM
[2] = second compound 0.0316 µM, first compound 0.1 µM
[3] = second compound 0.0316 µM, first compound 0.316 µM
[4] = second compound 0.0316 µM, first compound 1 µM
[5] = second compound 0.0316 µM, first compound 3.16 µM
[6] = second compound 0.0316 µM, first compound 10 µM
[7] = second compound 0.1 µM, first compound 0.0316 µM
[8] = second compound 0.1 µM, first compound 0.1 µM
[9] = second compound 0.1 µM, first compound 0.316 µM
[10] = second compound 0.1 µM, first compound 1 µM
[11] = second compound 0.1 µM, first compound 3.16 µM
[12] = second compound 0.1 µM, first compound 10 µM
[13] = second compound 0.316 µM, first compound 0.0316 µM
[14] = second compound 0.316 µM, first compound 0.1 µM
[15] = second compound 0.316 µM, first compound 0.316 µM
[16] = second compound 0.316 µM, first compound 1 µM
[17] = second compound 0.316 µM, first compound 3.16 µM
[18] = second compound 0.316 µM, first compound 10 µM
[19] = second compound 1 µM, first compound 0.0316 µM
[20] = second compound 1 µM, first compound 0.1 µM
[21] = second compound 1 µM, first compound 0.316 µM
[22] = second compound 1 µM, first compound 1 µM
[23] = second compound 1 µM, first compound 3.16 µM
[24] = second compound 1 µM, first compound 10 µM
[25] = second compound 3.16 µM, first compound 0.0316 µM
[26] = second compound 3.16 µM, first compound 0.1 µM
[27] = second compound 3.16 µM, first compound 0.316 µM
[28] = second compound 3.16 µM, first compound 1 µM
[29] = second compound 3.16 µM, first compound 3.16 µM
[30] = second compound 3.16 µM, first compound 10 µM
[31] = second compound 10 µM, first compound 0.0316 µM
[32] = second compound 10 µM, first compound 0.1 µM
[33] = second compound 10 µM, first compound 0.316 µM
[34] = second compound 10 µM, first compound 1 µM
[35] = second compound 10 µM, first compound 3.16 µM
[36] = second compound 10 µM, first compound 10 µM
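Further: spheroids exposed to compounds for one week before readout.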
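Wherever viability, T/C is given: percent viability relative to DMSO vehicle wells taken as 100%.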

COc1cc(C2c3cc4c(cc3C(OC3OC5COC(C)OC5C(O)C3O)C3COC(=O)C23)OCO4)cc(OC)c1O (centres undefined) + COC1C(OC(N)=O)C(O)C(Oc2ccc3c(O)c(NC(=O)c4ccc(O)c(CC=C(C)C)c4)c(=O)oc3c2C)OC1(C)C
inactive: viability, T/C [1] 100% | viability, T/C [2] 102% | viability, T/C [3] 95.3% | viability, T/C [4] 83% | viability, T/C [5] 88.3% | viability, T/C [6] 54.2% | viability, T/C [7] 117% | viability, T/C [8] 117% | viability, T/C [9] 95.6% | viability, T/C [10] 81.8% | viability, T/C [11] 77.1% | viability, T/C [12] 59.8% | viability, T/C [13] 108% | viability, T/C [14] 106% | viability, T/C [15] 93.4% | viability, T/C [16] 85.8% | viability, T/C [17] 81% | viability, T/C [18] 55% | viability, T/C [19] 104% | viability, T/C [20] 113% | viability, T/C [21] 92.5% | viability, T/C [22] 86.1% | viability, T/C [23] 74.5% | viability, T/C [24] 45.8% | viability, T/C [25] 111% | viability, T/C [26] 111% | viability, T/C [27] 100% | viability, T/C [28] 79% | viability, T/C [29] 68.1% | viability, T/C [30] 59.3% | viability, T/C [31] 106% | viability, T/C [32] 108% | viability, T/C [33] 84.5% | viability, T/C [34] 82.5% | viability, T/C [35] 74.1% | viability, T/C [36] 56.5%
> 10000 nM: IC50 (second compound 0.0316 µM) | IC50 (second compound 0.1 µM) | IC50 (second compound 0.316 µM) | IC50 (second compound 3.16 µM) | IC50 (second compound 10 µM)
8650 nM: IC50 (second compound 1 µM)

COc1cccc2c1C(=O)c1c(O)c3c(c(O)c1C2=O)CC(O)(C(=O)CO)CC3OC1CC(N)C(O)C(C)O1 (centres undefined) + COC1C(OC(N)=O)C(O)C(Oc2ccc3c(O)c(NC(=O)c4ccc(O)c(CC=C(C)C)c4)c(=O)oc3c2C)OC1(C)C
inactive: viability, T/C [1] 98.8% | viability, T/C [2] 102% | viability, T/C [3] 79.2% | viability, T/C [4] 52.5% | viability, T/C [5] 8.11% | viability, T/C [7] 110% | viability, T/C [8] 100% | viability, T/C [9] 69% | viability, T/C [10] 49.2% | viability, T/C [11] 9.57% | viability, T/C [13] 106% | viability, T/C [14] 97.8% | viability, T/C [15] 71.8% | viability, T/C [16] 55.5% | viability, T/C [17] 5.27% | viability, T/C [19] 118% | viability, T/C [20] 110% | viability, T/C [21] 86.5% | viability, T/C [22] 53.7% | viability, T/C [23] 6.46% | viability, T/C [25] 102% | viability, T/C [26] 105% | viability, T/C [27] 79.9% | viability, T/C [28] 41.9% | viability, T/C [31] 99.6% | viability, T/C [32] 102% | viability, T/C [33] 76.2% | viability, T/C [34] 70.4% | viability, T/C [35] 7.3%
778 nM: IC50 (second compound 3.16 µM)
948 nM: IC50 (second compound 0.0316 µM)
1410 nM: IC50 (second compound 10 µM)
active: viability, T/C [6] 1.26% | viability, T/C [12] 1.74% | viability, T/C [18] 0.89% | viability, T/C [24] 0.25% | viability, T/C [29] 9.53% | viability, T/C [30] 0.27% | viability, T/C [36] 0.34%
964 nM: IC50 (second compound 1 µM)
864 nM: IC50 (second compound 0.316 µM)
762 nM: IC50 (second compound 0.1 µM)
